# Measured values from patent publication US8778966B2, “Quinolinone derivatives as PARP and tank inhibitors” (Janssen Pharmaceutica, NV, priority 2007, dated 2014).
# Columns and labels:
# TANK-2 enzyme = biological target: T1, TANK-2 enzyme (Homo sapiens, UniProt Q9H2K2); assay: In vitro Scintillation Proximity Assay (SPA) for TANK-2 inhibitory activity; format: biochemical; conditions: read-out: in vitro SPA assay TANK-2 pIC50 (converted)
# T1 construct: made in house
# T1 sequence (Q9H2K2 1-1166): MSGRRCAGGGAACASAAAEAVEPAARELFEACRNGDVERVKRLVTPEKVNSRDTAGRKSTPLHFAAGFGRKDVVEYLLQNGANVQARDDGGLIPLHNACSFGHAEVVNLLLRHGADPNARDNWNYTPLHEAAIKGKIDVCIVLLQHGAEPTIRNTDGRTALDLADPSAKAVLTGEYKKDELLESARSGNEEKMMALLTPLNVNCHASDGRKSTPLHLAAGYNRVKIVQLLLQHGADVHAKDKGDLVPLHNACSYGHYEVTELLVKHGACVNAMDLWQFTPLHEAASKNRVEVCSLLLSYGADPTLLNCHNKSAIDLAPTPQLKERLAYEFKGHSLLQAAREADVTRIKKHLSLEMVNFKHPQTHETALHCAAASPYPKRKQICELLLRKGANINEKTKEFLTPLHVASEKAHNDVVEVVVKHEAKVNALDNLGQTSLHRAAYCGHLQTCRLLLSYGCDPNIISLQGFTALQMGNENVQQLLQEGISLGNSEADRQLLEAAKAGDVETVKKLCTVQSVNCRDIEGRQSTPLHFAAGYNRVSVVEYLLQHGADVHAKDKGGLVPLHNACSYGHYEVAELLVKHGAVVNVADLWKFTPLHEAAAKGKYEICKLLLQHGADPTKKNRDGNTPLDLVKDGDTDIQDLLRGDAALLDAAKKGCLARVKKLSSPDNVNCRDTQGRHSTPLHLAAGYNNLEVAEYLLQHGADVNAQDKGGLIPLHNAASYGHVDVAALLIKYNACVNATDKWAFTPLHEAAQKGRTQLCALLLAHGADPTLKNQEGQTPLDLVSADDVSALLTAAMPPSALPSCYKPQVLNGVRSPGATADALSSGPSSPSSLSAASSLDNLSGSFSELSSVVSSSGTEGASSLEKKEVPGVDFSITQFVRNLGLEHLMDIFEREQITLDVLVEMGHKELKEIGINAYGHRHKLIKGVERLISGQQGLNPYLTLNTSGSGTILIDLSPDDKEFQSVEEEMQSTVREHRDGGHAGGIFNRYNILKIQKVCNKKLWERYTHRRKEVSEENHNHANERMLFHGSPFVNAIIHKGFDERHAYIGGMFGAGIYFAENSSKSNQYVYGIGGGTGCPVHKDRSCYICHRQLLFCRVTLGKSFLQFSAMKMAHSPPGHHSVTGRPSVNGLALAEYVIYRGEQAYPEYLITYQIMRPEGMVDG
# In short: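 Results are pIC50 values, with IC50 interpolated linearly around 50% of blank-subtracted control cpm. They come from a scintillation proximity read of TANK-2 (8 μg/ml) self-modification with [3H]-NAD+/NAD, incubated 120 min at room temperature in pH 7.4 Tris buffer containing MgCl2 and DTT. Compounds were first screened at 10^−5 M.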
# PC3 cells = assay: EB1 Comet (microtubule disruption) assay; format: cell-based, human; conditions: Homo sapiens, PC-3, 1 h, 1 hour treatment, read-out: EB1 pLAC (converted)
# In short: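 Readout is loss of Eb1 plus-end foci, scored by immunofluorescence microscopy, in PC3 cells after 1 h compound treatment at 37 °C with 0.6% final DMSO. LAC is defined as the lowest concentration leaving at least 50% of cells without Eb1 foci.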
IC50 (TANK-2 enzyme),SMILES,minimal effective concentration (PC3 cells)
0.126 µM,CCc1cc2ccc(C(C)(C#N)Cc3cc(Cl)nc(Cl)c3)cc2[nH]c1=O (stereo not shown) [Compound 372],1 µM
0.1 µM,CCc1cc2ccc(C(C)(C#N)CC3CCc4ccccc4O3)cc2[nH]c1=O (stereo not shown) [Compound 399],0.316 µM
